# Reference: paper PMC7822874, “Chemoprotective antimalarials identified through quantitative high-throughput screening of Plasmodium blood and liver stage parasites” (Scientific Reports, 2021)
# Where two headings read alike, the source gives them in different places.
# Experiments:
# [1] = system: P. berghei-ANKA-GFP-LucCON liver stage parasites in HepG2-A16-CD81EGFP cells; assay: P. berghei liver stage Pb-Luc assay, Method 1 (UCSD, 1536-well); assay type: cell-based, Plasmodium berghei; conditions: Plasmodium berghei, 48 h, P. berghei liver stage, average of 2 wells on a 1536 well plate; for activity at 1 µM: 1 µM compound treatment (10 mM stocks); for activity at 3 µM: 3 µM compound treatment (10 mM stocks)
# [2] = system: Plasmodium falciparum Dd2 asexual blood stage parasites; assay: microbe, parasite or virus in culture; design: species or system Plasmodium falciparum Dd2 in human erythrocytes; single determination (one 11-point concentration-response curve); conditions: Plasmodium falciparum, DD2, Erythrocyte, 72 h; read-out: AC50
# [3] = molecular target: Firefly luciferase (Fluc, EC 1.13.12.7) (Photinus pyralis, UniProt P08659); assay: biochemical; design: single determination (the paper says generally: 'qHTS assays were performed in a single replicate with a 7- to 11-point dose response format'; it is not stated for this counterscreen itself)
# HepG2-A16-CD81EGFP cells = conditions: average of 2 wells
# in vitro [4] = conditions: human, HepG2-A16-CD81EGFP cells, uninfected
# HepG2 = conditions: human, hepg2 cells, 48 h
# in vitro [5] = conditions: human, hepg2 cells
# in vitro [6] = conditions: human, HepG2 cells; n = 1
# [7] = system: luciferase-expressing P. berghei liver stage parasites in HepG2 cells; assay: Inhibition of liver-stage development assay (ILSDA), Method 2 (WRAIR, 96-well); assay type: cell-based, Plasmodium berghei; conditions: for AC50: Plasmodium berghei, HepG2, Method 2
# Firefly luciferase (Fluc, EC 1.13.12.7), sequence (P08659 whole entry): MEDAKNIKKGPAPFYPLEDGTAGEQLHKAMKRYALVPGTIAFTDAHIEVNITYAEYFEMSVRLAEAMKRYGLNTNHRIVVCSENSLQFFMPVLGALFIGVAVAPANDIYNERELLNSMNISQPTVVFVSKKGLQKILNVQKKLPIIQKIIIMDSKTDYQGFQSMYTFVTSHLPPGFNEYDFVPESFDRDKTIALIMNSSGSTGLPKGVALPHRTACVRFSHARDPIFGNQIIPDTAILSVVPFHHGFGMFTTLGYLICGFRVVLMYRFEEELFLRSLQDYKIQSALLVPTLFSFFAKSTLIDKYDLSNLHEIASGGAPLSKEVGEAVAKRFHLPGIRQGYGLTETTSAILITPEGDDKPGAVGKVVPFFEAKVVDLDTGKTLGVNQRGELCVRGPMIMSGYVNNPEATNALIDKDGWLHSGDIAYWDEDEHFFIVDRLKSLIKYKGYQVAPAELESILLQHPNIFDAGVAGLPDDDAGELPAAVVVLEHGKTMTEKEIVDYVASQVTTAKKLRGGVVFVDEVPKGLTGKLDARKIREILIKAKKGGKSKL
Compound,AC50 [3],AC50 [2],"viability at 48 h, 1 µM (in vitro [4])","viability at 48 h, 3 µM (in vitro [4])",further results
Cc1nn(-c2ccccc2)c(C)c1/C=N/Nc1nc2ccccc2[nH]1 [MLS000332160-01],12.1 µM,1.5 µM,–,–,"activity at 1 µM ([1]; replicate 1, normalized, read-out: PbLuc 1uM growth rep1): 86%; activity at 1 µM ([1]; replicate 2, normalized, read-out: PbLuc 1uM growth rep2): 81%; activity at 3 µM ([1]; replicate 1, normalized, read-out: PbLuc 3uM growth rep1): 33%; activity at 3 µM ([1]; replicate 2, normalized, read-out: PbLuc 3uM growth rep2): 53%; HepG2 1uM growth rep1 (HepG2-A16-CD81EGFP cells; HepG2, 1 µM compound treatment (10 mM stocks), replicate 1, normalized): 93%; HepG2 1uM growth rep2 (HepG2-A16-CD81EGFP cells; HepG2, 1 µM compound treatment (10 mM stocks), replicate 2, normalized): 90%; HepG2 3uM growth rep1 (HepG2-A16-CD81EGFP cells; HepG2, 3 µM compound treatment (10 mM stocks), replicate 1, normalized): 89%; HepG2 3uM growth rep2 (HepG2-A16-CD81EGFP cells; HepG2, 3 µM compound treatment (10 mM stocks), replicate 2, normalized): 86%"
Cc1cccnc1Nc1nc(-c2ccccn2)cs1 [MLS000528306-01],19.2 µM,0.473 µM,57%,30%,Log AC50 (M) (HepG2): -5.9643 M; CC50 at 48 h (in vitro [5]): 1.09 µM
CCCc1ccc(C(=O)NC(=O)c2ccccc2O)cc1 [MLS000850457-01],5.41 µM,1.06 µM,101%,94%,"Max Resp (signal direction of the dose response) ([7]; Method 2, Decrease = decreasing P. berghei viability with dose, Increase = increasing signal, Inactive = no dose response): Decrease; AC50 ([7]; Hill fit, 50% of maximum activity response, read-out: AC50): 0.282 µM; AC50 ([7]; log10 of molar AC50 from Hill fit, read-out: Log AC50 (converted)): 0.282 µM"
NC(=NOC(=O)c1cccc(F)c1)c1ccccn1 [MLS001075504-01],10.8 µM,–,–,–,Log AC50 (M) (HepG2): -4.8143 M; CC50 at 48 h (in vitro [5]): 15.3 µM
N=c1n(N)c2ccccc2n1CC(=O)c1ccc(Br)cc1 [MLS001183984-01],12.1 µM,–,–,–,viability at 66 h (in vitro [4]): 103%
CCc1ccc(C2=CC(c3cccc(C)c3)n3c(nc4ccccc43)N2)cc1 (stereo not shown) [NCGC00140745-01],4.82 µM,15 µM,–,–,–
Nc1ncnc2c1ncn2[C@@H]1O[C@H](CN[S+](=O)([O-])NC(=O)c2cccc(-c3noc(-c4ccccc4F)n3)c2)[C@@H](O)[C@H]1O [NCGC00183809-01],0.0136 µM,–,–,–,CC50 at 48 h (in vitro [6]): 1.72 µM

# The next lines start with results.
AC50 [3],Compound,AC50 [2],"viability at 48 h, 1 µM (in vitro [4])","viability at 48 h, 3 µM (in vitro [4])",further results
12.1 µM,Cc1ccc(C)c(/N=N/c2nc3ccccc3n2C)c1 [MLS000577452-01],0.299 µM,95%,88%,–
6.81 µM,Cn1c(/N=N/c2ccccc2)nc2ccccc21 [MLS000700530-01],0.841 µM,91%,70%,CC50 at 48 h (in vitro [6]): 12.2 µM
0.0171 µM,COc1cc(SC)ccc1C(=O)Nc1nc2ccccc2[nH]1 [MLS001172173-01],–,–,–,CC50 at 48 h (in vitro [6]): 19.3 µM
17.1 µM,Cc1cc(N2CCN(C)CC2)nc2ccc(NC(=O)Nc3ccccc3Br)cc12 [NCGC00126483-01],–,–,–,Log AC50 (M) (HepG2): -4.3643 M; CC50 at 48 h (in vitro [5]): 43.2 µM
